We go through two molecules from patent publication US5834452A, “1- or 6-hydroxylated steroids” (Roussel Uclaf, priority 1996, dated 1998).

Assay [1] deals with T1, Human estrogen receptor (HOR) (Homo sapiens, UniProt P03372).
T1 construct: made in house; host or cells: SF9 insect cells (baculovirus), lysate supernatant
T1 sequence (P03372 1-595): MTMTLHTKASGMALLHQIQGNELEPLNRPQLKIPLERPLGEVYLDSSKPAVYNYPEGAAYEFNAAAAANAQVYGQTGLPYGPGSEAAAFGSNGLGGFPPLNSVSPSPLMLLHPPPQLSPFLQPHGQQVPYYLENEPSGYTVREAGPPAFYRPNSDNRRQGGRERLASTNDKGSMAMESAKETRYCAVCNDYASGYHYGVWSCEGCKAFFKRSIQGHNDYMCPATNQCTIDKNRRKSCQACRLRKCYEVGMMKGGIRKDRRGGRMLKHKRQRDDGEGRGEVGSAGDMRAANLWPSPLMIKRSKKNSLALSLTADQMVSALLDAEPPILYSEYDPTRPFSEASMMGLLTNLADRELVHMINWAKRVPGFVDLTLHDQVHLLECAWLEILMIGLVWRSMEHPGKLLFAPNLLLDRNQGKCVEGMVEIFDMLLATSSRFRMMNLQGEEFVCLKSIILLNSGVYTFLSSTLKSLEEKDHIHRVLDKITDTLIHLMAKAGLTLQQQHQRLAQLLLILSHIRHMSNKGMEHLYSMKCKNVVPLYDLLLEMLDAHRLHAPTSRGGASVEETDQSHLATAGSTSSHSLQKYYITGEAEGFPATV
Kind of assay: Relative bond affinity (RBA), recombinant human estrogen receptor, charcoal dextran technique. Conditions: 24 h at 0° C., Estradiol = 100. Format: binding. The source says:
(§1) The human recombinant receptor (HGR, HPR, HAR, HMR, HER) was used.
Human estrogen receptor (HOR):
A supernatant of SF9 cells containing the recombinant human estrogen receptor was obtained by the process described above for the progestogen receptor using the cDNA fragment described in the expression vector HEGO by Tora et al (The EMBO Journal, (1989), Vol. 8 No. 7, p. 1981-1986) containing the region coding for the human estrogen receptor of "wild type" with a glycine in position 400. The cells obtained were lysed in the lysis buffer (1).
The supernatant was incubated at 0° C. for 24 hours with a constant concentration (T) of tritiated estradiol in the presence of increasing concentrations of either unlabelled estradiol (0-1000×10^-9 M), or the unlabelled product to be tested (1 to 25000×10^-9 M). The concentration of bound tritiated estradiol (B) was then measured in each incubate using the charcoal dextran adsorption technique.
Calculation of the relative bond affinity (RBA).
(§2) The following two curves were drawn: the percentage of bound tritiated hormone B/BO as a function of the logarithm of the concentration of unlabelled reference hormone or as a function of the logarithm of the concentration of unlabelled test product. The straight line of the following equation was determined: […]
The intersections of the straight line I50 and the curves allowed the evaluation of the concentrations of unlabelled reference hormone (CH) and of the unlabelled test product (CX) which inhibited by 50% the specific binding of the tritiated hormone on the receptor.
The relative bond affinity (RBA) of the test product was determined by the equation:
The RBA's of reference products Estradiol, Progesterone Dexamethasone, Testosterone and Aldosterone were arbitrarily taken as being equal to 100.

In assay [2] the target is T2, Human glucocorticoid receptor (HGR) (Homo sapiens, UniProt P04150).
T2 construct: made in house; host or cells: SF9 insect cells (baculovirus), lysate supernatant
T2 sequence (P04150 1-777): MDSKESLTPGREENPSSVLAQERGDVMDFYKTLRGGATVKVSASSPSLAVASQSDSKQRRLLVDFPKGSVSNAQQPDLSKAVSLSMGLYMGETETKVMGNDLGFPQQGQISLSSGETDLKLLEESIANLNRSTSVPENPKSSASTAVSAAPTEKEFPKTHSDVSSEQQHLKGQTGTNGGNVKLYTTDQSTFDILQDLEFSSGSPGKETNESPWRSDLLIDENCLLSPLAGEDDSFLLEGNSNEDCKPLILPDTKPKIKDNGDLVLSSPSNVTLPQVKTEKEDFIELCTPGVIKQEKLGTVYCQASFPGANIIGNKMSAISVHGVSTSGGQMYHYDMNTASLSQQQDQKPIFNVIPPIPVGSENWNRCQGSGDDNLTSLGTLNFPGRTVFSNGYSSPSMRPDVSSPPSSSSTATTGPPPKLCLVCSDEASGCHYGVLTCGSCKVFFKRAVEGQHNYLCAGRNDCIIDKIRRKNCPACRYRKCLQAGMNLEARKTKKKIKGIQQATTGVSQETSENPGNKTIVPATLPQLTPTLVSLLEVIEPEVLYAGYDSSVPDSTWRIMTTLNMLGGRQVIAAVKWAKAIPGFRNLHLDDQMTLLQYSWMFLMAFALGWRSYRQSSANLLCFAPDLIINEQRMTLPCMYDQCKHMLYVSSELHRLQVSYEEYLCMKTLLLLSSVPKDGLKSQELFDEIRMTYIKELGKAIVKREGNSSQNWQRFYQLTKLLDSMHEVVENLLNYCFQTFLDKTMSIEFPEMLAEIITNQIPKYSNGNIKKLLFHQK
The assay is described as follows: Relative bond affinity (RBA), recombinant human glucocorticoid receptor, charcoal dextran technique. It counts as binding. The note with it: 24 h at 0° C.; Dexamethasone = 100.
Description: as §1
Human glucocorticoid receptor (HGR):
A supernatant of SF9 cells containing the recombinant human glucocorticoid receptor was obtained by the process described above for the progestogen receptor using the cDNA fragment described by Hollenberg et al (Nature, (1985), Vol. 318 No. 19/26 635) containing the region coding for the human glucocorticoid receptor. The cells obtained were lysed in the lysis buffer (2).
The supernatant was incubated at 0° C. for 24 hours with a constant concentration (T) of tritiated 11β, 17β-dihydroxy-6,21-dimethyl-[…] the presence of increasing concentrations of either unlabelled dexamethasone (0-1000×10^-9 M), or the unlabelled product to be tested (1 to 25000×10^-9 M). The concentration of bound tritiated 11β, 17β-dihydroxy-6,21-dimethyl-Δ^1,4,6 -pregnatriene-20-yn-3-one (B) was then measured in each incubate using the charcoal dextran adsorption technique. […]
as §2
The relative bond affinity (RBA) of the test product was determined by the equation: […]

Regarding `C[C@H](O)C(=O)[C@@]1(C)CC[C@H]2[C@@H]3C[C@@H](O)C4=CC(=O)CCC4=C3CC[C@@]21C` [Product B, [6β, 17β-(S)]-6-hydroxy-17-(2-hydroxy-1-oxopropyl)-17-methyl-Δ^4,9-estradiene-3-one], the entries for the “RBA, Human estrogen receptor” value in assay [1] and in assay [1] (listed as product B) were 0 and “zero”, respectively. Besides, the “RBA, Human glucocorticoid receptor” value in assay [2] is reported as “no or negligible RBA's”.

Regarding `C[C@H](O)C(=O)[C@@]1(C)CC[C@H]2[C@@H]3CCC4=CC(=O)CCC4=C3CC[C@@]21C` [Trimegestone, [17β-(S)]-17-(2-hydroxy-1-oxopropyl)-17-methyl-Δ^4,9-estradiene-3-one, reference compound], the “RBA, Human estrogen receptor” value is recorded as 0 in assay [1] and “zero” in assay [1] (listed as Trimegesterone).
